Biological target: T1, KRas-G12D (Homo sapiens, UniProt P01116, G12D)
T1 construct: insert the HiBiT tag onto the N-terminus of one or more of the endogenous KRas alleles; host or cells: AsPC-1 HiBiT-KRasG12D knock-in clone (one tagged allele, two untagged KRasG12D alleles)
Assay: HiBiT Degradation Assay (G12D), AsPC-1 HiBiT-KRasG12D cells, 24 hr
Assay type: cell-based
Settings: for Dmax: ASPC1, AsPC-1 cells, maximum degradation observed; for DC50: AsPC-1 cells
Outline: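 AsPC-1 cells with CRISPR N-terminal HiBiT knock-in on one endogenous KRasG12D allele, treated 24 hr at 37° C with compound titrations in 0.5% DMSO. Lytic HiBiT luminescence normalized to DMSO, fitted to a 4-parameter model for DC50 and Dmax. Parallel alamar blue (4 hr) checked viability.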

T1 sequence (P01116 1-188 isoform P01116-2 G12D): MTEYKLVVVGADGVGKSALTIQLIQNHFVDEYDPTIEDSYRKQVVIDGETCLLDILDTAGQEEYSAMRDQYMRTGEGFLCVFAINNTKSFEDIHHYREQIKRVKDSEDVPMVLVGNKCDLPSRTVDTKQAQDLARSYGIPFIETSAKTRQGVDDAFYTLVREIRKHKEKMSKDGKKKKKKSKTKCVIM

CCc1cccc2cc(O)cc(-c3ncc4c(N5CC6CCC(C5)N6)nc(OCCN5CCC(CC6CCN(c7cccc8c7C(=O)N(C7CCC(=O)NC7=O)C8=O)CC6)CC5)nc4c3F)c12 (stereo not drawn) [Compound 66, 4-[4-[[1-[2-[4-(3,8-diazabicyclo[3.2.1]octan-3-yl)-7-(8-ethyl-3-hydroxy-1-naphthyl)-8-fluoro-pyrido[4,3-d]pyrimidin-2-yl]oxyethyl]-4-piperidyl]methyl]-1-piperidyl]-2-(2,6-dioxo-3-piperidyl)isoindoline-1,3-dione]
Dmax: ≤ 25% | DC50: 0.25 to 1 µM

CCc1cccc2cc(O)cc(-c3ncc4c(N5CC6CCC(C5)N6)nc(OCCN5CCC(CC6CCN(c7ccc8c(c7)C(=O)N(C7CCC(=O)NC7=O)C8=O)CC6)CC5)nc4c3F)c12 (stereo not drawn) [Compound 67, 5-[4-[[1-[2-[4-(3,8-diazabicyclo[3.2.1]octan-3-yl)-7-(8-ethyl-3-hydroxy-1-naphthyl)-8-fluoro-pyrido[4,3-d]pyrimidin-2-yl]oxyethyl]-4-piperidyl]methyl]-1-piperidyl]-2-(2,6-dioxo-3-piperidyl)isoindoline-1,3-dione]
DC50: > 1 µM

C#Cc1c(F)ccc2cc(O)cc(-c3ncc4c(C5CC6CCC(C5)N6)nc(OCCN5CCC(CC6CCN(CC7CCN(c8ccc9c(c8)CN(C8CCC(=O)NC8=O)C9=O)CC7)CC6)CC5)nc4c3F)c12 (stereo not drawn) [Compound 68]
Dmax: > 70% | DC50: < 5.1 µM

C#Cc1c(F)ccc2cc(O)cc(-c3ncc4c(C5CC6CCC(C5)N6)nc(OCCN5CCC6(CC5)CCN(CC5CCN(c7ccc8c(c7)CN(C7CCC(=O)NC7=O)C8=O)CC5)CC6)nc4c3F)c12 (stereo not drawn) [Compound 70]
Dmax: > 70% | DC50: < 5.1 µM

CCc1cccc2cc(O)cc(-c3ncc4c(C5CC6CCC(C5)N6)nc(OC[C@@H]5C[C@@H](OC6CCN(CC7CCN(c8ccc9c(c8)CN(C8CCC(=O)NC8=O)C9=O)CC7)CC6)CN5C)nc4c3F)c12 (stereo partly drawn) [Compound 71]
Dmax: > 70% | DC50: < 5.1 µM

C#Cc1c(F)ccc2cc(O)cc(-c3ncc4c(C5CC6CCC(C5)N6)nc(OCCN5CCC(CN6CC7(CCN(c8ccc9c(c8)CN(C8CCC(=O)NC8=O)C9=O)CC7)C6)CC5)nc4c3F)c12 (stereo not drawn) [Compound 72]
Dmax: > 70% | DC50: < 5.1 µM

C#Cc1c(F)ccc2cc(O)cc(-c3ncc4c(C5CC6CCC(C5)N6)nc(OCCN5CCC(CC6CCN(CC7CCN(c8ccc9c(c8)C(=O)N(C8CCC(=O)NC8=O)C9=O)CC7)CC6)CC5)nc4c3F)c12 (stereo not drawn) [Compound 74]
Dmax: > 70% | DC50: < 5.1 µM

C#Cc1c(F)ccc2cc(O)cc(-c3ncc4c(N5CC6CCC(C5)N6)nc(OCCN5CCC(CC6CCN(CC7CCN(c8cccc9c8C(=O)N(C8CCC(=O)NC8=O)C9=O)CC7)CC6)CC5)nc4c3F)c12 (stereo not drawn) [Compound 75]
DC50: < 5.1 µM

C#Cc1c(F)ccc2cc(O)cc(-c3ncc4c(N5CC6CCC(C5)N6)nc(OCCN5CCC6(CC5)CCN(CC5CCN(c7ccc8c(c7)C(=O)N(C7CCC(=O)NC7=O)C8=O)CC5)CC6)nc4c3F)c12 (stereo not drawn) [Compound 76]
Dmax: > 70% | DC50: < 5.1 µM

CCc1cccc2cc(O)cc(-c3ncc4c(N5CC6CCC(C5)N6)nc(OC[C@@H]5C[C@@H](OC6CCN(c7ccc8c(c7)CN(C7CCC(=O)NC7=O)C8=O)CC6)CN5C)nc4c3F)c12 (stereo partly drawn) [Compound 77]
Dmax: > 70% | DC50: < 5.1 µM

C#Cc1c(F)ccc2cc(O)cc(-c3ncc4c(N5CC6CCC(C5)N6)nc(OCCN5CCC(C(F)(F)C6CCN(CC7CCN(c8ccc9c(c8F)CN(C8CCC(=O)NC8=O)C9=O)CC7)CC6)CC5)nc4c3F)c12 (stereo not drawn) [Compound 79, 3-{5-[4-({4-[(1-{2-[(4-{3,8-diazabicyclo[3.2.1]octan-3-yl}-7-(8-ethynyl-7-fluoro-3-hydroxynaphthalen-1-yl)-8-fluoropyrido[4,3-d]pyrimidin-2-yl)oxy]ethyl}piperidin-4-yl)difluoromethyl]piperidin-1-yl}methyl)piperidin-1-yl]-4-fluoro-1-oxo-2,3-dihydro-1H-isoindol-2-yl}piperidine-2,6-dione]
Dmax: > 70% | DC50: < 5.1 µM

C#Cc1c(F)ccc2cc(O)cc(-c3ncc4c(N5CC6CCC(C5)N6)nc(OCCN5CCC(CN6CCC(CC7CCN(c8ccc9c(c8)n(C(C)C)c(=O)n9C8CCC(=O)NC8=O)CC7)CC6)CC5)nc4c3F)c12 (stereo not drawn) [Compound 80, 3-{5-[4-({1-[(1-{2-[(4-{3,8-diazabicyclo[3.2.1]octan-3-yl}-7-(8-ethynyl-7-fluoro-3-hydroxynaphthalen-1-yl)-8-fluoropyrido[4,3-d]pyrimidin-2-yl)oxy]ethyl}piperidin-4-yl)methyl]piperidin-4-yl}methyl)piperidin-1-yl]-2-oxo-3-(propan-2-yl)-2,3-dihydro-1H-1,3-benzodiazol-1-yl}piperidine-2,6-dione]
Dmax: > 70% | DC50: < 5.1 µM

C#Cc1c(F)ccc2cc(O)cc(-c3ncc4c(N5CC6CCC(C5)N6)nc(OCCN5CCC(CN6CCC(CC7CCN(c8ccc9c(c8Cl)CN(C8CCC(=O)NC8=O)C9=O)CC7)CC6)CC5)nc4c3F)c12 (stereo not drawn) [Compound 81, 3-{4-chloro-5-[4-({1-[(1-{2-[(4-{3,8-diazabicyclo[3.2.1]octan-3-yl}-7-(8-ethynyl-7-fluoro-3-hydroxynaphthalen-1-yl)-8-fluoropyrido[4,3-d]pyrimidin-2-yl)oxy]ethyl}piperidin-4-yl)methyl]piperidin-4-yl}methyl)piperidin-1-yl]-1-oxo-2,3-dihydro-1H-isoindol-2-yl}piperidine-2,6-dione]
Dmax: > 70% | DC50: < 5.1 µM

C#Cc1c(F)ccc2cc(O)cc(-c3ncc4c(N5CC6CCC(C5)N6)nc(OCCN5CCC(CN6CCC(CC7CCN(c8ccc9c(c8)n(C)c(=O)n9C8CCC(=O)NC8=O)CC7)CC6)CC5)nc4c3F)c12 (stereo not drawn) [Compound 82, 3-{5-[4-({1-[(1-{2-[(4-{3,8-diazabicyclo[3.2.1]octan-3-yl}-7-(8-ethynyl-7-fluoro-3-hydroxynaphthalen-1-yl)-8-fluoropyrido[4,3-d]pyrimidin-2-yl)oxy]ethyl}piperidin-4-yl)methyl]piperidin-4-yl}methyl)piperidin-1-yl]-3-methyl-2-oxo-2,3-dihydro-1H-1,3-benzodiazol-1-yl}piperidine-2,6-dione]
Dmax: > 70% | DC50: < 5.1 µM

C#Cc1c(F)ccc2cc(O)cc(-c3ncc4c(N5CC6CCC(C5)N6)nc(OCCN5CCC6(CC5)CCN(CC5CCN(c7cccc8c7n(C)c(=O)n8C7CCC(=O)NC7=O)CC5)CC6)nc4c3F)c12 (stereo not drawn) [Compound 83, 3-(4-{4-[(9-{2-[(4-{3,8-diazabicyclo[3.2.1]octan-3-yl}-7-(8-ethynyl-7-fluoro-3-hydroxynaphthalen-1-yl)-8-fluoropyrido[4,3-d]pyrimidin-2-yl)oxy]ethyl}-3,9-diazaspiro[5.5]undecan-3-yl)methyl]piperidin-1-yl}-3-methyl-2-oxo-2,3-dihydro-1H-1,3-benzodiazol-1-yl)piperidine-2,6-dione]
Dmax: > 70% | DC50: < 5.1 µM

C#Cc1c(F)ccc2cc(O)cc(-c3ncc4c(N5CC6CCC(C5)N6)nc(OC[C@]56CCCN5[C@H](CN5CCN(CC7CCN(c8ccc9c(c8)CN(C8CCC(=O)NC8=O)C9=O)CC7)CC5)CC6)nc4c3F)c12 (stereo partly drawn) [Compound 84, 3-[5-[4-[[4-[[(3S,8R)-8-[[4-(3,8-diazabicyclo[3.2.1]octan-3-yl)-7-(8-ethynyl-7-fluoro-3-hydroxy-1-naphthyl)-8-fluoro-pyrido[4,3-d]pyrimidin-2-yl]oxymethyl]-1,2,3,5,6,7-hexahydropyrrolizin-3-yl]methyl]piperazin-1-yl]methyl]-1-piperidyl]-1-oxo-isoindolin-2-yl]piperidine-2,6-dione]
Dmax: > 70% | DC50: < 5.1 µM

CCc1c(F)ccc2cc(O)cc(-c3ncc4c(N5CC6CCC(C5)N6)nc(OC[C@@H]5C[C@@H](OC6CCN(CC7CCN(c8ccc9c(c8)CN(C8CCC(=O)NC8=O)C9=O)CC7)CC6)CN5C)nc4c3F)c12 (stereo partly drawn) [Compound 85, 3-(5-{4-[(4-{[(3R,5S)-5-{[(4-{3,8-diazabicyclo[3.2.1]octan-3-yl}-7-(8-ethyl-7-fluoro-3-hydroxynaphthalen-1-yl)-8-fluoropyrido[4,3-d]pyrimidin-2-yl)oxy]methyl}-1-methylpyrrolidin-3-yl]oxy}piperidin-1-yl)methyl]piperidin-1-yl}-1-oxo-2,3-dihydro-1H-isoindol-2-yl)piperidine-2,6-dione]
Dmax: > 70% | DC50: < 5.1 µM

CCc1c(F)ccc2cc(O)cc(-c3ncc4c(N5CC6CCC(C5)N6)nc(OCCN5CCC(CC6CCN(CC7CCN(c8ccc9c(c8)CN(C8CCC(=O)NC8=O)C9=O)CC7)CC6)CC5)nc4c3F)c12 (stereo not drawn) [Compound 86, 3-{5-[4-({4-[(1-{2-[(4-{3,8-diazabicyclo[3.2.1]octan-3-yl}-7-(8-ethyl-7-fluoro-3-hydroxynaphthalen-1-yl)-8-fluoropyrido[4,3-d]pyrimidin-2-yl)oxy]ethyl}piperidin-4-yl)methyl]piperidin-1-yl}methyl)piperidin-1-yl]-1-oxo-2,3-dihydro-1H-isoindol-2-yl}piperidine-2,6-dione]
Dmax: > 70% | DC50: < 5.1 µM

C#Cc1c(F)ccc2cc(O)cc(-c3ncc4c(N5CC6CCC(C5)N6)nc(OCCN5CCC(CN6CCC(CC7CCN(c8ccc9c(c8)CN(C8CCC(=O)NC8=O)C9=O)CC7)CC6)CC5)nc4c3F)c12 (stereo not drawn) [Compound 87, 3-[5-[4-[[1-[[1-[2-[4-(3,8-diazabicyclo[3.2.1]octan-3-yl)-7-(8-ethynyl-7-fluoro-3-hydroxy-1-naphthyl)-8-fluoropyrido[4,3-d]pyrimidin-2-yl]oxyethyl]-4-piperidyl]methyl]-4-piperidyl]methyl]-1-piperidyl]-1-oxo-isoindolin-2-yl]piperidine-2,6-dione]
Dmax: > 70% | DC50: < 5.1 µM

Reference: patent US12448399B2, “Cereblon-based KRAS degrading PROTACs and uses related thereto” (Arvinas Operations, Inc., priority 2023, dated 2025)
